Assay results from ChEMBL document CHEMBL4152305, “Studies on 2-phenylquinoline Staphylococcus aureus NorA efflux pump inhibitors: New insights on the C-6 position” (Eur J Med Chem, 2018).
Values after ≈ are worked out from the molar mass of the structure shown. Active and inactive are the calls of the source. The calls are words filed in the database; no cut-off is given here.

Key:
[1] = target: T1, Quinolone resistance protein NorA (Staphylococcus aureus) (UniProt P0A0J7); assay: Inhibition of Staphylococcus aureus SA-1199 norA assessed as potentiation of ciprofloxacin-induced antibacterial activity up to 100 ug/ml by checkerboard method
T1 sequence (whole entry): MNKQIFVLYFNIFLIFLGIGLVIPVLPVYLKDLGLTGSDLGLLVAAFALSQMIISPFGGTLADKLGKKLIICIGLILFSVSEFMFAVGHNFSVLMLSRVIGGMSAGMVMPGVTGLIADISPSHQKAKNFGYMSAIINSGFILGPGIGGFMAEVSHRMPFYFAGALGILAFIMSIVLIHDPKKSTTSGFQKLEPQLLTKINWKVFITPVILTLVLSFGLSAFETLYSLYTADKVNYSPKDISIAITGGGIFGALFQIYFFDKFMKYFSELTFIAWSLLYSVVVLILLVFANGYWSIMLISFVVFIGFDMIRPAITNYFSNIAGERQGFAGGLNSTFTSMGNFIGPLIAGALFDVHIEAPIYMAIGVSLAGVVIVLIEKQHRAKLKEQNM

[2] = target: T1, Quinolone resistance protein NorA (Staphylococcus aureus); assay: Inhibition of Staphylococcus aureus SA-1199B NorA assessed as reduction in EtBr efflux at 50 uM measured over 5 mins by fluorescence assay relative to control
Staphylococcus aureus [3] = assay: Growth inhibition of Staphylococcus aureus SA-1199 expressing wild type norA by microdilution method; type: organism-based; conditions: in vivo
Staphylococcus aureus [4] = assay: Growth inhibition of Staphylococcus aureus ATCC 25923 by microdilution method; type: organism-based; conditions: in vivo
Staphylococcus aureus [5] = assay: Growth inhibition of Staphylococcus aureus SA-1199B expressing wild type norA and co-expressing GrlA A116E mutant by microdilution method; type: organism-based; conditions: in vivo
Staphylococcus aureus [6] = assay: Growth inhibition of Staphylococcus aureus ATCC 25923 up to 100 ug/ml in presence of ciprofloxacin by checkerboard assay; type: organism-based; conditions: in vivo
[7] = target: T2, Quinolone resistance protein NorA (Staphylococcus aureus, UniProt P0A0J7); assay: Inhibition of Staphylococcus aureus SA-1199B NorA assessed as reduction in EtBr efflux measured over 5 mins by fluorescence assay
T2 sequence (P0A0J7 whole entry): T1 sequence (whole entry)

[8] = target: T1, Quinolone resistance protein NorA (Staphylococcus aureus); assay: Inhibition of Staphylococcus aureus SA-1199B NorA assessed as potentiation of ciprofloxacin-induced antibacterial activity by measuring minimum potetntiation concentration causing 4 fold reduction in ciprofloxacin MIC by ciprofloxacin assay
[9] = target: T1, Quinolone resistance protein NorA (Staphylococcus aureus); assay: Potency index, ratio of reserpine IC50 to test compound IC50 for Staphylococcus aureus SA-1199B NorA assessed as reduction in EtBr efflux
[10] = Cytotoxicity against human HepG2 cells assessed as reduction in cell number after 24 hrs by bioluminescence assay; type: cell-based
[11] = Selectivity index, ratio of CC50 for human HepG2 cells to compound effect for inhibition of Staphylococcus aureus SA-1199B NorA assessed as potentiation of ciprofloxacin-induced antibacterial activity by measuring minimum potetntiation concentration causing 4 fold reduction in ciprofloxacin MIC; type: toxicity; conditions: read-out: Selectivity Index

| Structure (SMILES) | Activity [1] | inhibition [2] [%] | MIC (Staphylococcus aureus [3]) | MIC (Staphylococcus aureus [4]) | MIC (Staphylococcus aureus [5]) | growth inhibition (GI) (Staphylococcus aureus [6]) | IC50 [7] [µM] | Activity [8] [µg/mL] | Ratio IC50 [9] | CC50 at 24 h [10] [µg/mL] | selectivity ratio [11] |
| --- | --- | --- | --- | --- | --- | --- | --- | --- | --- | --- | --- |
| CCCOc1ccc(-c2cc(OCCN(CC)CC)c3cc(OCCN(CC)CC)ccc3n2)cc1 | inactive | 81.4 | > 100 µg/mL | 100 µg/mL (≈ 203 µM) | > 202.6 µM | Non-Toxic | 10.6 | – | – | – | – |
| CCCOc1ccc(-c2cc(OCCN3CCCCC3)c3cc(O)ccc3n2)cc1 | inactive | 87 | 25 µg/mL (≈ 61.5 µM) | 25 µg/mL (≈ 61.5 µM) | 61.5 µM | Non-Toxic | 3.3 | 6.25 | 2 | – | – |
| CCCOc1ccc(-c2cc(OCCN(CC)CC)c3cc(OCCCN(C)C)ccc3n2)cc1 | inactive | 80.9 | > 100 µg/mL | 100 µg/mL (≈ 208 µM) | > 208.5 µM | Non-Toxic | 8.8 | – | – | – | – |
| CCCOc1ccc(-c2cc(OCCN(CC)CC)c3ccccc3n2)cc1 | – | – | – | – | – | – | 8.9 | 6.25 | – | 21.6 (≈ 57 µM) | 3.5 |
| CCCOc1ccc(-c2cc(OCCN(CC)CC)c3cc(O)ccc3n2)cc1 | inactive | 95 | 50 µg/mL (≈ 127 µM) | 50 µg/mL (≈ 127 µM) | 126.7 µM | Non-Toxic | 5.8 | 1.56 | 2 | – | – |
| CCCOc1ccc(-c2cc(OCCN(CC)CC)c3cc(OCCCN4CCOCC4)ccc3n2)cc1 | inactive | 91.1 | > 100 µg/mL | 100 µg/mL (≈ 192 µM) | > 191.7 µM | Non-Toxic | 5 | 12.5 | 2 | – | – |
| CCCOc1ccc(-c2cc(OCCN3CCCCC3)c3cc(OCCN4CCCCC4)ccc3n2)cc1 | inactive | – | Nd(Insoluble) | Nd(Insoluble) | – | Non-Toxic | – | – | – | – | – |
| O=C(O)c1cn(C2CC2)c2cc(N3CCNCC3)c(F)cc2c1=O [CIPROFLOXACIN] | – | – | 0.63 µg/mL (≈ 1.9 µM) | 0.63 µg/mL (≈ 1.9 µM) | 10 µg/mL | – | – | – | – | – | – |
| CCCOc1ccc(-c2cc(OCCN(CC)CC)c3cc(OCCN4CCCCC4)ccc3n2)cc1 | inactive | – | Nd(Insoluble) | Nd(Insoluble) | – | Non-Toxic | – | – | – | – | – |
| CCCOc1ccc(-c2cc(OCCN3CCCCC3)c3ccccc3n2)cc1 | – | – | – | – | – | – | 7.3 | 1.56 | – | 38.9 (≈ 99.6 µM) | 24.9 |
| COC(=O)[C@H]1[C@H]2C[C@@H]3c4[nH]c5cc(OC)ccc5c4CCN3C[C@H]2C[C@@H](OC(=O)c2cc(OC)c(OC)c(OC)c2)[C@@H]1OC [RESERPINE] | – | – | > 100 µg/mL | > 100 µg/mL | > 164 µM | – | 9.2 | 1.56 | – | – | – |
| CCCOc1ccc(-c2cc(OCCN3CCCCC3)c3cc(OCCN(CC)CC)ccc3n2)cc1 | inactive | 91.4 | 100 µg/mL (≈ 198 µM) | 100 µg/mL (≈ 198 µM) | 197.7 µM | Non-Toxic | 5.2 | 25 | 2 | – | – |
| CCCOc1ccc(-c2cc(OCCN3CCCCC3)c3cc(OCc4ccccc4)ccc3n2)cc1 | inactive | 76.3 | 100 µg/mL (≈ 201 µM) | 100 µg/mL (≈ 201 µM) | – | Non-Toxic | – | 0.78 | 2 | 33.8 (≈ 68.1 µM) | 43.4 |
| CCCOc1ccc(-c2cc(OCCN(CC)CC)c3cc(OCc4ccccc4)ccc3n2)cc1 | inactive | 91.1 | > 100 µg/mL | > 100 µg/mL | – | Non-Toxic | – | 0.78 | 2 | 12.3 (≈ 25.3 µM) | 15.7 |
| CCCOc1ccc(-c2cc(OCCN3CCCCC3)c3cc(OCCCN(C)C)ccc3n2)cc1 | inactive | 92.5 | 100 µg/mL (≈ 203 µM) | 100 µg/mL (≈ 203 µM) | 203.4 µM | Non-Toxic | 7.2 | 6.25 | – | – | – |
| CCCOc1ccc(-c2cc(OCCN3CCCCC3)c3cc(OCCCN4CCOCC4)ccc3n2)cc1 | inactive | 93.2 | 50 µg/mL (≈ 93.7 µM) | 100 µg/mL (≈ 187 µM) | 93.7 µM | Non-Toxic | 4.4 | 6.25 | 2 | – | – |
